This note sets out measurements from ChEMBL document CHEMBL6134843, “HDAC11 Inhibition as a Potential Therapeutic Strategy for AML: Target Identification, Lead Discovery, Antitumor Potency, and Mechanism Investigation” (J Med Chem, 2025).

The subject of data set [1] is U-937. Description: Induction of ferroptosis in human U-937 cells assessed as increase in lipid peroxidation accumulation at 5 uM incubated for 48 hrs in presence of ferrostatin-1 by C11-BODIPY 581/591 staining based flow cytometry analysis. In kind it is functional, cell-based.
The subject of data set [2] is OCI-AML2. Description: Induction of cell differentiation in human OCI-AML2 cells assessed as increase in CD14 expression at 5 uM incubated for 48 hrs by flow cytometry analysis. It is filed as functional, cell-based.
The subject of data set [3] is U-937. The data set can be described thus: Induction of ferroptosis in human U-937 cells assessed as increase in cellular ROS level incubated for 48 hrs by DCFH-DA staining based flow cytometry analysis. It is filed as functional, cell-based. As to conditions: dose 2.5-10 µM. (In flow cytometry, cells or beads pass a laser one at a time.)
The subject of data set [4] is U-937. Description: Upregulation of p62 mRNA level in human U-937 cells by qRT-PCR analysis. In kind it is functional, cell-based.
Data set [5] has as its system U-937. Description: Upregulation of Nrf2 transcription level in human U-937 cells by RNA-seq analysis. In kind it is functional, cell-based.
Data set [6] has as its system U-937. The data set can be described thus: Induction of cell differentiation in human U-937 cells assessed as increase in CD14 expression at 5 uM incubated for 48 hrs by flow cytometry analysis. It is filed as functional, cell-based.
The subject of data set [7] is OCI-AML2. Description: Induction of ferroptosis in human OCI-AML2 cells assessed as increase in lipid peroxidation accumulation at 100 uM incubated for 48 hrs by C11-BODIPY 581/591 staining based flow cytometry analysis. In kind it is functional, cell-based.
Data set [8] concerns U-937. The data set can be described thus: Antiproliferative activity against human U-937 cells assessed as suppression of cell growth at 5 uM incubated for 48 hrs in presence of K67 by trypan blue staining based analysis. In kind it is functional.
Data set [9] can be described thus: Tmax in ICR(CD-1) mouse at 50 mg/kg, ip treated up to 24 hrs by LC-MS/MS analysis. In kind it is ADME, organism-based. The conditions noted are these: in vivo.
Data set [10] relates to OCI-AML2. The data set can be described thus: Induction of ferroptosis in human OCI-AML2 cells assessed as increase in cellular ROS level incubated for 48 hrs by DCFH-DA staining based flow cytometry analysis. It is filed as functional, cell-based. As to conditions: dose 2.5-10 µM.
Data set [11] can be described thus: Volume of distribution at steady state in ICR(CD-1) mouse at 5 mg/kg, iv treated up to 24 hrs by LC-MS/MS analysis. It is filed as ADME, organism-based. As to conditions: in vivo, read-out: Vdss.
For data set [12], the system named is OCI-AML2. The data set can be described thus: Induction of ferroptosis in human OCI-AML2 cells assessed as increase in malondialdehyde level at 5 uM incubated for 48 hrs. It is filed as functional, cell-based.
Data set [13] in a line: Toxicity in female C57BL/6 mouse assessed as drug tolerance at 50 mg/kg, ip administered once daily. In kind it is organism-based. The conditions noted are these: in vivo.
Data set [14] has as its system OCI-AML2. Description: Induction of ferroptosis in human OCI-AML2 cells assessed as increase in lipid peroxidation accumulation at 5 uM incubated for 48 hrs in presence of ferrostatin-1 by C11-BODIPY 581/591 staining based flow cytometry analysis. In kind it is functional, cell-based.
Data set [15] in a line: Cytotoxicity against HEK293T cells assessed as cell viability incubated for 2 days by CCK-8 assay. It is filed as toxicity, cell-based, HEK-293T. The conditions noted are these: human. (In general: Tetrazolium assays rely on reduction of a dye to a coloured formazan, in cell work by metabolically active cells.)
For data set [16], the system named is OCI-AML2. Description: Induction of ferroptosis in human OCI-AML2 cells assessed as increase in lipid peroxidation level incubated for 48 hrs by C11-BODIPY 581/591 staining based flow cytometry analysis. The conditions noted are these: dose 2.5-10 µM. In kind it is functional, cell-based.
Data set [17] has as its system U-937. The data set can be described thus: Effect on CDK6 gene expression in human U-937 cells at 10 uM incubated for 48 hrs by RT-qPCR. In kind it is functional, cell-based.
The test system of data set [18] is U-937. Description: Effect on CCND2 gene expression in human U-937 cells at 10 uM incubated for 48 hrs by RT-qPCR. In kind it is functional, cell-based. (In general: Real-time PCR tracks product formation cycle by cycle.)
Data set [19] in a line: MRT (0 to infinity) in ICR(CD-1) mouse at 5 mg/kg, iv treated up to 24 hrs by LC-MS/MS analysis. It is filed as ADME, organism-based. As to conditions: in vivo.

Each structure is given as a SMILES string. Active and inactive are the calls of the source. The calls are words filed in the database; no cut-off is given here.

The Tmax is the time at which the peak concentration occurs. What is called IC50 is the concentration that gives 50% inhibition. Usually MRT inf stands for the average time that molecules of a dose stay in the body. For `O=C(NO)c1cccc2[nH]c(C#Cc3cccc(C(F)(F)F)c3)cc12`, the outcome in the data set with U-937 [1], in the data set with U-937 [5], with U-937 [8] and in the data set on OCI-AML2 [14] was inactive. Also, the result in the data set with OCI-AML2 [2], in the data set with U-937 [4], in the data set with U-937 [6], with OCI-AML2 [7], in the data set with OCI-AML2 [12] and in the data set with U-937 [17] was Active. Moreover, the result with U-937 [18] was Active. For the same compound, the Activity result with U-937 [3] was “Dose-dependent-effect”; in the data set on OCI-AML2 [10] it was “Dose-dependent-effect”; in [13], “Non-toxic”; with OCI-AML2 [16], “Dose-dependent-effect”. Moreover, in data set [9], the Tmax came out at 4.8 min. In addition, in data set [11], the Vd stood at 10.2 L/kg. Further, in data set [15], the concentration for half-maximal inhibition (IC50) at 2 days amounted to 80 µM. The same compound returned an MRT inf in [19] of 1.27 h.
